# Results from ChEMBL document CHEMBL4330132, “5-Keto-3-cyano-2,4-diaminothiophenes as selective maternal embryonic leucine zipper kinase inhibitors” (Bioorg Med Chem Lett, 2019).
# Legend:
# [1] = test system: Phosphatidylinositol 4,5-bisphosphate 3-kinase catalytic subunit alpha isoform (Homo sapiens), P42336 [C420R]; experiment: Binding affinity to human partial length PIK3CA C420R mutant (R108 to N1068 residues) expressed in mammalian expression system assessed as residual binding level at 1 uM by Kinomescan method relative to control
# [2] = target: Receptor-interacting serine/threonine-protein kinase 2 (Homo sapiens) (UniProt O43353); experiment: Binding affinity to wild-type human partial length RIPK2 (M1 to K310 residues) expressed in bacterial expression system assessed as residual binding level at 1 uM by Kinomescan method relative to control
# [3] = target: Microtubule-associated serine/threonine-protein kinase 1 (Homo sapiens) (UniProt Q9Y2H9); experiment: Binding affinity to wild-type human partial length MAST1 (S346 to V730 residues) expressed in mammalian expression system assessed as residual binding level at 1 uM by Kinomescan method relative to control
# [4] = target: Casein kinase I isoform alpha-like (Homo sapiens) (UniProt Q8N752); experiment: Binding affinity to wild-type human full length CSNK1A1L (M1 to N337 residues) expressed in bacterial expression system assessed as residual binding level at 1 uM by Kinomescan method relative to control
# Sequence of Casein kinase I isoform alpha-like (Homo sapiens) (Q8N752 whole entry, the tested form may be a part, canonical isoform): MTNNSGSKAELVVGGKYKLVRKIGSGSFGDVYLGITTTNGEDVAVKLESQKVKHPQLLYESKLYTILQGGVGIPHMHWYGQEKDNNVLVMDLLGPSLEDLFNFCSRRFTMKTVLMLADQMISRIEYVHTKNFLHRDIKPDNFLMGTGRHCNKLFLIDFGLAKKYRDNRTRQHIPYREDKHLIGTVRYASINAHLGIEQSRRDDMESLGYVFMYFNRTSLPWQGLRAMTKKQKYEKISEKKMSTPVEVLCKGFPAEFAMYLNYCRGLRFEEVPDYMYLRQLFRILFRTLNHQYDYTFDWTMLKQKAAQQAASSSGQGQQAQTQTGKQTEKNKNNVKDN
# [5] = target: Serine/threonine-protein kinase pim-3 (Homo sapiens) (UniProt Q86V86); experiment: Binding affinity to wild-type human partial length PIM3 (G16 to A317 residues) expressed in bacterial expression system assessed as residual binding level at 1 uM by Kinomescan method relative to control
# [6] = target: Atypical kinase COQ8A, mitochondrial (Homo sapiens) (UniProt Q8NI60); experiment: Binding affinity to wild-type human full length ADCK3 (M280 to Q647 residues) expressed in bacterial expression system assessed as residual binding level at 1 uM by Kinomescan method relative to control
# [7] = target: Misshapen-like kinase 1 (Homo sapiens) (UniProt Q8N4C8); experiment: Binding affinity to wild-type human partial length MINK (M1 to K312 residues) expressed in mammalian expression system assessed as residual binding level at 1 uM by Kinomescan method relative to control
# [8] = target: Homeodomain-interacting protein kinase 2 (Homo sapiens) (UniProt Q9H2X6); experiment: Binding affinity to wild-type human partial length HIPK2 (M153 to S564 residues) expressed in mammalian expression system assessed as residual binding level at 1 uM by Kinomescan method relative to control
# [9] = target: Dual specificity tyrosine-phosphorylation-regulated kinase 1A (Homo sapiens) (UniProt Q13627); experiment: Binding affinity to wild-type human partial length DYRK1A (H129 to S509 residues) expressed in mammalian expression system assessed as residual binding level at 1 uM by Kinomescan method relative to control
# [10] = target: Tyrosine-protein kinase ZAP-70 (Homo sapiens) (UniProt P43403); experiment: Binding affinity to wild-type human partial length ZAP70 (D20 to G299 residues) expressed in mammalian expression system assessed as residual binding level at 1 uM by Kinomescan method relative to control
# [11] = target: Ribosomal protein S6 kinase alpha-2 (Homo sapiens) (UniProt Q15349); experiment: Binding affinity to wild-type human partial length N-terminal RSK3 kinase domain 1 (M1 to Q385 residues) expressed in bacterial expression system assessed as residual binding level at 1 uM by Kinomescan method relative to control
# [12] = target: Cyclin-dependent kinase 11A (Homo sapiens) (UniProt Q9UQ88); experiment: Binding affinity to wild-type human partial length CDC2L2 (D391 to K730 residues) expressed in bacterial expression system assessed as residual binding level at 1 uM by Kinomescan method relative to control
# Sequence of Cyclin-dependent kinase 11A (Homo sapiens) (Q9UQ88 whole entry, the tested form may be a part): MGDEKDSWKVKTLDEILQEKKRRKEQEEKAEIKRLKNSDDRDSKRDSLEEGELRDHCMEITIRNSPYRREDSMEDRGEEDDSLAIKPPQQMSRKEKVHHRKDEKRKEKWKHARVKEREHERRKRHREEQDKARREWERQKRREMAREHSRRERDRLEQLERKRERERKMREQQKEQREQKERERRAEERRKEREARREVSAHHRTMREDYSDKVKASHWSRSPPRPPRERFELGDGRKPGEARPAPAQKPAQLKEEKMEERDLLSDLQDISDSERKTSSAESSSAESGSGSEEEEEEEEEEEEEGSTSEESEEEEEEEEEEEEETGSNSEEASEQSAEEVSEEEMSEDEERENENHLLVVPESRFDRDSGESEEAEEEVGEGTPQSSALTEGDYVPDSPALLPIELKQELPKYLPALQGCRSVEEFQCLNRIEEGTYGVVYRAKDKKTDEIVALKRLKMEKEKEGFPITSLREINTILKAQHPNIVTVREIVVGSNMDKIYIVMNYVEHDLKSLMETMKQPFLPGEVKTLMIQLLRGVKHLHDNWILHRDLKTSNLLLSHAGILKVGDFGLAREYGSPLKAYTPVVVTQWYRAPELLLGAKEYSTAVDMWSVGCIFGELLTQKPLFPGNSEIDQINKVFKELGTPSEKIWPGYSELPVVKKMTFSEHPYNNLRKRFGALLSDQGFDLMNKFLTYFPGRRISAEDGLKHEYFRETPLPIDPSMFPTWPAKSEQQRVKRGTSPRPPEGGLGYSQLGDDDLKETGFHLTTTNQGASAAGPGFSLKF
# [13] = test system: Tyrosine-protein kinase ABL1 (Homo sapiens), P00519 [F317I]; experiment: Binding affinity to human phosphorylated ABL1 F317I mutant (S229 to K512 residues) expressed in mammalian expression system assessed as residual binding level at 1 uM by Kinomescan method relative to control
# Sequence of Tyrosine-protein kinase ABL1 (Homo sapiens), P00519 [F317I] (P00519 whole entry F317I, the tested form may be a part): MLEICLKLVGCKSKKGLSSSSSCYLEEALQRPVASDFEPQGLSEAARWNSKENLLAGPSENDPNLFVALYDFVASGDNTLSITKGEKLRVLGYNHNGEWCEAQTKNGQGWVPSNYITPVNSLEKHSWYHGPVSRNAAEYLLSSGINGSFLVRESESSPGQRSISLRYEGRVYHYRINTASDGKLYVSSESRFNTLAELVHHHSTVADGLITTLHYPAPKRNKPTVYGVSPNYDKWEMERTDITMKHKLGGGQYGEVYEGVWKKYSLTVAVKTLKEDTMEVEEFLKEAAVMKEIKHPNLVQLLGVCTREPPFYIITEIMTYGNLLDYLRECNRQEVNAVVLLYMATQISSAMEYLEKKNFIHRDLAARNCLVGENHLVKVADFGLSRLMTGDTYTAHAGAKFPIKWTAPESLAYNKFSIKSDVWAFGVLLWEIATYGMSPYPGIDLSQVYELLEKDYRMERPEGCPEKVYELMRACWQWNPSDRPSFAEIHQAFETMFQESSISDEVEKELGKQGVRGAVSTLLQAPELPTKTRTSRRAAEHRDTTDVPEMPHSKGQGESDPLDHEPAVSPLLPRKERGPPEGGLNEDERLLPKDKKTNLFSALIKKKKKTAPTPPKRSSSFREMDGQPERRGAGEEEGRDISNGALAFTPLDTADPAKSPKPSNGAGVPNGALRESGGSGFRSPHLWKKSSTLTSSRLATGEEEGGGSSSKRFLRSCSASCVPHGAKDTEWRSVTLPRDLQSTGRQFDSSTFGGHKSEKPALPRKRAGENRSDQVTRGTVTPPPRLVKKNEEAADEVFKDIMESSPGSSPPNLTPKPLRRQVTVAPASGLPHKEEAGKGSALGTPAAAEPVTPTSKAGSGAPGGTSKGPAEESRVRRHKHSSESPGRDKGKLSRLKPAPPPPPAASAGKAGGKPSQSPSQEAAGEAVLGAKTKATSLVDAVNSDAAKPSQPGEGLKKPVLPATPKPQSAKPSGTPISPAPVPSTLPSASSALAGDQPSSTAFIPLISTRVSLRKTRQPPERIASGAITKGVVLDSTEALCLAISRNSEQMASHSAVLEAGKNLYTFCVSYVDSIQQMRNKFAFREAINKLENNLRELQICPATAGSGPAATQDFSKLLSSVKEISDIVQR
# [14] = target: Ephrin type-A receptor 4 (Homo sapiens) (UniProt P54764); experiment: Binding affinity to wild-type human partial length EPHA4 (T601 to R897 residues) expressed in bacterial expression system assessed as residual binding level at 1 uM by Kinomescan method relative to control
# Sequence of Ephrin type-A receptor 4 (Homo sapiens) (P54764 whole entry, the tested form may be a part): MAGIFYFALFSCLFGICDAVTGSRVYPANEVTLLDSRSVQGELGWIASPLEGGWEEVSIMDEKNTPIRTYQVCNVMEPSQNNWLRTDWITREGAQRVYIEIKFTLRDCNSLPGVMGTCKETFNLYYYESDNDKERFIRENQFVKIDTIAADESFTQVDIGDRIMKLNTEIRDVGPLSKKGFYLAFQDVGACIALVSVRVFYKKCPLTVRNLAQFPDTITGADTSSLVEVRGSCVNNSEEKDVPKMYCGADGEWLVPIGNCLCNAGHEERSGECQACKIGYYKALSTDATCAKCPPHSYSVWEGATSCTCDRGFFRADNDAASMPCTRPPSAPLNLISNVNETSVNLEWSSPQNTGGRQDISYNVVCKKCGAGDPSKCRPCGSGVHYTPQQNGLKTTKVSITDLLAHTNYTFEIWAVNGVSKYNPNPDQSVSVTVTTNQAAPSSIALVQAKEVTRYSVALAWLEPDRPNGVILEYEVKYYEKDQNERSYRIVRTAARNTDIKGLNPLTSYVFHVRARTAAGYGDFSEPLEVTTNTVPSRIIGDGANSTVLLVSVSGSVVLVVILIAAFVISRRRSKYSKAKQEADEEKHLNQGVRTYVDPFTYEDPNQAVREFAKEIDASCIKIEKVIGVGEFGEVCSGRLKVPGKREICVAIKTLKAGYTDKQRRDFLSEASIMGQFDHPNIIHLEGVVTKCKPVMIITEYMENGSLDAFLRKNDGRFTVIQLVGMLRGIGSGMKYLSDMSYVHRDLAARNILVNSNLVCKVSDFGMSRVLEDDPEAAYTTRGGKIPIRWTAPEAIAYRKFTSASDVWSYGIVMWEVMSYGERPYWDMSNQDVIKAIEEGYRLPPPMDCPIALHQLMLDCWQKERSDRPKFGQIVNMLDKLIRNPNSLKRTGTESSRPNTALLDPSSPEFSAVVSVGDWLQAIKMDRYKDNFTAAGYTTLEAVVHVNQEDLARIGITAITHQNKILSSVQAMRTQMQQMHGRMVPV
# [15] = target: Maternal embryonic leucine zipper kinase (Homo sapiens, UniProt Q14680); experiment: Binding affinity to wild-type human full length MELK (M1 to V651 residues) expressed in bacterial expression system assessed as residual binding level at 1 uM by Kinomescan method relative to control
# [16] = target: Dual specificity mitogen-activated protein kinase kinase 1 (Homo sapiens) (UniProt Q02750); experiment: Binding affinity to wild-type human full length MEK1 (M1 to V393 residues) expressed in mammalian expression system assessed as residual binding level at 1 uM by Kinomescan method relative to control
# Sequence of Dual specificity mitogen-activated protein kinase kinase 1 (Homo sapiens) (Q02750 whole entry, the tested form may be a part): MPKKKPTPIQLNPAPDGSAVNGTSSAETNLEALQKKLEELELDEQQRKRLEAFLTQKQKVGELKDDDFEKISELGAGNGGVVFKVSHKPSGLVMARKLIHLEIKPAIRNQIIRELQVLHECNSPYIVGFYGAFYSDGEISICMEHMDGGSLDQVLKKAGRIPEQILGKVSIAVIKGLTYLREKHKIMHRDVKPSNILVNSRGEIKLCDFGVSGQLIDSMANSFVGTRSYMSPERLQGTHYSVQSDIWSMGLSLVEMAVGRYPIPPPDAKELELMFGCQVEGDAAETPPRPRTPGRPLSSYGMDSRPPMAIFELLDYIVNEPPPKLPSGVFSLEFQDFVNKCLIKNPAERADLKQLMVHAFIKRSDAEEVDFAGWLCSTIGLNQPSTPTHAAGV
# [17] = target: Serine/threonine-protein kinase ICK (Homo sapiens) (UniProt Q9UPZ9); experiment: Binding affinity to wild-type human partial length ICK (M1 to P314 residues) expressed in mammalian expression system assessed as residual binding level at 1 uM by Kinomescan method relative to control
# [18] = target: Mitogen-activated protein kinase kinase kinase kinase 4 (Homo sapiens) (UniProt O95819); experiment: Binding affinity to wild-type human partial length MAP4K4 (M1 to R310 residues) expressed in bacterial expression system assessed as residual binding level at 1 uM by Kinomescan method relative to control
# [19] = target: Calcium/calmodulin-dependent protein kinase kinase 2 (Homo sapiens) (UniProt Q96RR4); experiment: Binding affinity to wild-type human partial length CAMKK2 (D65 to V471 residues) expressed in bacterial expression system assessed as residual binding level at 1 uM by Kinomescan method relative to control
# [20] = target: Mast/stem cell growth factor receptor Kit (Homo sapiens) (UniProt P10721); experiment: Binding affinity to wild-type human partial length KIT (I571 to D952 residues) expressed in bacterial expression system assessed as residual binding level at 1 uM by Kinomescan method relative to control
# [21] = target: Discoidin domain-containing receptor 2 (Homo sapiens) (UniProt Q16832); experiment: Binding affinity to wild-type human partial length DDR2 (V555 to E855 residues) expressed in mammalian expression system assessed as residual binding level at 1 uM by Kinomescan method relative to control
# Sequence of Discoidin domain-containing receptor 2 (Homo sapiens) (Q16832 whole entry, the tested form may be a part): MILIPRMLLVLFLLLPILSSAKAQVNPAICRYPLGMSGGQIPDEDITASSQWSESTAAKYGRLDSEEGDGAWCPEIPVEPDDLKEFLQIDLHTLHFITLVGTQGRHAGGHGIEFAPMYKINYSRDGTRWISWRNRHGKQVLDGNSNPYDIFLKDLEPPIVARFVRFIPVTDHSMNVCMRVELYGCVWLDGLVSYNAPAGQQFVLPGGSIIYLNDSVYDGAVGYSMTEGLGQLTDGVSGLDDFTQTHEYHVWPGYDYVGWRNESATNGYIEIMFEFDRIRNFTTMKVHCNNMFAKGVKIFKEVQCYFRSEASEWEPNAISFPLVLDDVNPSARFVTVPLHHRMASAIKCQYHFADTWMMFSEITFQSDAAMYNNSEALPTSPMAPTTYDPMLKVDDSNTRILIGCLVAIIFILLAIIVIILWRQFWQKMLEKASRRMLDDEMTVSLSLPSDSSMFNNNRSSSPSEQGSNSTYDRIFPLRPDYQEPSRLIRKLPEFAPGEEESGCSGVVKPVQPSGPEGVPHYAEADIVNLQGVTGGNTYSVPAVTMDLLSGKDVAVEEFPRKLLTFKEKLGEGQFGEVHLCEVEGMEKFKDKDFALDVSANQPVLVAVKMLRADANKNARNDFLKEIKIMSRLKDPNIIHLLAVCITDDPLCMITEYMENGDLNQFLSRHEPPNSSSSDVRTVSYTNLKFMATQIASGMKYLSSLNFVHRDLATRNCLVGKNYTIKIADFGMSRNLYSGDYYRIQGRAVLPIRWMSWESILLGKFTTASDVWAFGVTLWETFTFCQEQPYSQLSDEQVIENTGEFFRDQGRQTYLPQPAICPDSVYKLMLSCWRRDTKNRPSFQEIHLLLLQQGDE
# [22] = target: RAC-beta serine/threonine-protein kinase (Homo sapiens) (UniProt P31751); experiment: Binding affinity to wild-type human partial length AKT2 expressed in bacterial expression system assessed as residual binding level at 1 uM by Kinomescan method relative to control
# [23] = target: Tyrosine-protein kinase receptor UFO (Homo sapiens) (UniProt P30530); experiment: Binding affinity to wild-type human partial length AXL (R497 to Y821 residues) expressed in bacterial expression system assessed as residual binding level at 1 uM by Kinomescan method relative to control
# [24] = target: Uncharacterized serine/threonine-protein kinase SBK3 (Homo sapiens) (UniProt P0C264); experiment: Binding affinity to wild-type human partial length SgK110 (L22 to R329 residues) expressed in bacterial expression system assessed as residual binding level at 1 uM by Kinomescan method relative to control
# Sequence of Uncharacterized serine/threonine-protein kinase SBK3 (Homo sapiens) (P0C264 whole entry, the tested form may be a part): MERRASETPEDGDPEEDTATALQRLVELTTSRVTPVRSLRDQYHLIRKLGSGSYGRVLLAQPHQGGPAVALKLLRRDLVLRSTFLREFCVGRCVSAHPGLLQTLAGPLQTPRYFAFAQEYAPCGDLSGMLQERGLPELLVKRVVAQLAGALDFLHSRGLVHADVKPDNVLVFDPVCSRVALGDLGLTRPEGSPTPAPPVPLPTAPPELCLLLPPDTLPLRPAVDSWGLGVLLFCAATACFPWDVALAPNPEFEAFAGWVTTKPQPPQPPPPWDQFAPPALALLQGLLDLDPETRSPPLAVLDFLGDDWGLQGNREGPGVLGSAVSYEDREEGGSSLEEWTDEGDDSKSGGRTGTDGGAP
smiles,measurement,setting,value
CC(C)Nc1sc(C(=O)c2ccc(Cl)s2)c(N)c1C#N,Activity,[1],100%
same,Activity,[2],82%
same,Activity,[3],100%
same,Activity,[4],91%
same,Activity,[5],86%
same,Activity,[6],93%
same,Activity,[7],55%
same,Activity,[8],94%
same,Activity,[9],100%
same,Activity,[10],100%
same,Activity,[11],54%
same,Activity,[12],100%
same,Activity,[13],100%
same,Activity,[14],93%
same,Activity,[15],14%
same,Activity,[16],96%
same,Activity,[17],100%
same,Activity,[18],46%
same,Activity,[19],76%
same,Activity,[20],76%
same,Activity,[21],100%
same,Activity,[22],93%
same,Activity,[23],89%
same,Activity,[24],100%
